Data: ChEMBL document CHEMBL1201862, “PubChem BioAssay data set” (2004)
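In this assay, cells in 96-well plates receive the compound at five concentrations for 48 hours. Endpoints are linearly interpolated between the surrounding concentrations. The concentration for 50% growth inhibition is given as GI50.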 Calls of active or inactive are those of the source. Cut-off read from the data, not from the text of the source: active = GI50 up to about 1.1 µM and inactive = higher.

Assays:
Experiment in all cases: NCI-60 cell line screen, 48 h
[1] = tested on: DU-145
[2] = tested on: OVCAR-4
[3] = tested on: A549
[4] = tested on: OVCAR-3
[5] = tested on: OVCAR-8
[6] = tested on: RPMI-8226
[7] = tested on: HCT-116
[8] = tested on: SNB-75
[9] = tested on: NCI-H226
[10] = tested on: COLO 205
[11] = tested on: OVCAR-5
[12] = tested on: SF-295
[13] = tested on: BT-549
[14] = tested on: HL-60
[15] = tested on: MDA-MB-435
[16] = tested on: SK-MEL-28
[17] = tested on: A498
[18] = tested on: NCI-H23
[19] = tested on: KM12
[20] = tested on: UACC-62

| SMILES | GI50 [1] | GI50 [2] | GI50 [3] | GI50 [4] | GI50 [5] | GI50 [6] | GI50 [7] | GI50 [8] | GI50 [9] | GI50 [10] | GI50 [11] | GI50 [12] | GI50 [13] | GI50 [14] | GI50 [15] | GI50 [16] | GI50 [17] | GI50 [18] | GI50 [19] | GI50 [20] |
| --- | --- | --- | --- | --- | --- | --- | --- | --- | --- | --- | --- | --- | --- | --- | --- | --- | --- | --- | --- | --- |
| Oc1cc(O)c2c(c1)O[C@H](c1cc(O)c(O)c(O)c1)[C@@H](O)C2 [GALLOCATECHIN] | > 100 µM (inactive) | 22.4 µM (inactive) | 40.5 µM (inactive) | 21.8 µM (inactive) | 16.2 µM (inactive) | 20.7 µM (inactive) | 17.9 µM (inactive) | 17.9 µM (inactive) | 28.8 µM (inactive) | 19.3 µM (inactive) | 18.8 µM (inactive) | 24.4 µM (inactive) | 23.6 µM (inactive) | 22.2 µM (inactive) | 18.5 µM (inactive) | 43.3 µM (inactive) | > 100 µM (inactive) | 23.5 µM (inactive) |  |  |
| COc1ccc(/C=C\c2cc(OC)c(OC)c(OC)c2)cc1OCC(=O)O | 6.46 µM (inactive) | 20.7 µM (inactive) | 24.8 µM (inactive) | 2.69 µM (inactive) | 5.64 µM (inactive) | 4.84 µM (inactive) | 3.46 µM (inactive) | 5.15 µM (inactive) | 15.1 µM (inactive) | > 100 µM (inactive) | > 100 µM (inactive) | 12.7 µM (inactive) | 13.5 µM (inactive) | 2.84 µM (inactive) | 1.72 µM (inactive) | 6.61 µM (inactive) | 31.1 µM (inactive) | 3.9 µM (inactive) | 5.86 µM (inactive) | 4.99 µM (inactive) |
| O=C(O)CS(=O)(=O)C(c1ccccc1)c1ccccc1 | > 100 µM (inactive) | > 100 µM (inactive) | > 100 µM (inactive) | > 100 µM (inactive) | > 100 µM (inactive) | > 100 µM (inactive) | > 100 µM (inactive) | > 100 µM (inactive) | > 100 µM (inactive) | > 100 µM (inactive) | > 100 µM (inactive) | > 100 µM (inactive) | > 100 µM (inactive) | > 100 µM (inactive) | > 100 µM (inactive) | > 100 µM (inactive) | > 100 µM (inactive) | > 100 µM (inactive) | > 100 µM (inactive) | > 100 µM (inactive) |
| CC1=Nc2c(C#N)ncn2N=C(C)C1 | > 100 µM (inactive) | > 100 µM (inactive) | > 100 µM (inactive) | > 100 µM (inactive) |  | > 100 µM (inactive) | > 100 µM (inactive) | > 100 µM (inactive) | > 100 µM (inactive) | > 100 µM (inactive) | > 100 µM (inactive) | > 100 µM (inactive) | > 100 µM (inactive) | > 100 µM (inactive) | > 100 µM (inactive) | > 100 µM (inactive) | > 100 µM (inactive) | > 100 µM (inactive) | > 100 µM (inactive) | > 100 µM (inactive) |
| O=C1C(NCCN2CCOCC2)=C(Cl)C(=O)c2ncccc21 | 1.01 µM (active) |  | 1.55 µM (inactive) | 0.392 µM (active) | 0.377 µM (active) | 0.1 µM (active) | 0.348 µM (active) | 1.12 µM (inactive) | 1.69 µM (inactive) |  | 1.7 µM (inactive) | 1.4 µM (inactive) | 1.29 µM (inactive) | 0.0249 µM (active) | 0.182 µM (active) | 1.61 µM (inactive) | 2.03 µM (inactive) | 0.556 µM (active) | 1.34 µM (inactive) | 0.618 µM (active) |
| CC1=NN(c2nc(N)nc(C(C)Cl)n2)C(C)(C)C1 (stereo unspecified) | > 100 µM (inactive) | > 100 µM (inactive) |  |  | > 100 µM (inactive) | > 100 µM (inactive) | > 100 µM (inactive) | > 100 µM (inactive) | > 100 µM (inactive) | > 100 µM (inactive) |  | > 100 µM (inactive) | > 100 µM (inactive) | > 100 µM (inactive) | > 100 µM (inactive) | > 100 µM (inactive) | > 100 µM (inactive) | > 100 µM (inactive) | > 100 µM (inactive) | > 100 µM (inactive) |
| OC1OC(c2ccc[nH]2)C(F)(F)C(F)(F)C1(F)F (stereo unspecified) | > 100 µM (inactive) | 73.1 µM (inactive) | > 100 µM (inactive) | > 100 µM (inactive) | > 100 µM (inactive) | > 100 µM (inactive) | > 100 µM (inactive) | 60.8 µM (inactive) | > 100 µM (inactive) | 26.7 µM (inactive) | > 100 µM (inactive) | > 100 µM (inactive) | > 100 µM (inactive) | 43.5 µM (inactive) | > 100 µM (inactive) | > 100 µM (inactive) | > 100 µM (inactive) |  | > 100 µM (inactive) | > 100 µM (inactive) |
